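96-well plates; 48 h exposure; 5 concentrations. Endpoints by linear interpolation between flanking doses. Not reached: highest tested concentration assigned. GI50 marks 50% less growth.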 The source made the active and inactive calls. No stated cut-off is given here; in the data, active = GI50 up to about 1.1 µM and inactive = higher. Where only a bound is given, the exact number is not on record here.

Some test systems named below: SF-539; OVCAR-3; SK-MEL-28; Malme-3M; KM12; SNB-19; BT-549; SF-295; M14; HT-29; SK-MEL-5; SF-268; OVCAR-8; A549; UACC-62; HCT-15; NCI-H226; MDA-N; T47D.
Holding throughout (assay): growth of human tumour cells (NCI), 48 h

As to `CC(C(=O)O)C1Nc2ccccc2NC1=O` (centres undefined), the GI50 with SF-539, in the experiment on OVCAR-3, in the experiment on SK-MEL-28, in the experiment with Malme-3M, in the experiment with KM12 and in the experiment with SNB-19 was > 100 µM (inactive) each time. For the same compound, the GI50 with BT-549, in the experiment with SF-295, in the experiment on M14, with HT-29, with SK-MEL-5 and in the experiment with SF-268 was > 100 µM (inactive) in each case. Moreover, the GI50 in the experiment on OVCAR-8 was > 100 µM (inactive); in the experiment on A549, > 100 µM (inactive); in the experiment on UACC-62, > 100 µM (inactive); with HCT-15, more than 100 µM; in the experiment with NCI-H226, > 100 µM (inactive); with MDA-N, > 100 µM (inactive). Moreover, the GI50 in the experiment on T47D was > 100 µM (inactive).
For `O=C1CC(Cl)c2c(Cl)sc(Cl)c21` (centres undefined), the GI50 with SF-539 was 2.63 µM (inactive); in the experiment on OVCAR-3 it was 2.31 µM (inactive); with SK-MEL-28, 2.1 µM (inactive); in the experiment on Malme-3M, 1.42 µM (inactive); with KM12 it was 1.67 µM (inactive); with SNB-19, 11.4 µM (inactive). Besides, the GI50 with BT-549 was 4.06 µM (inactive); with SF-295 it was 15.4 µM (inactive); in the experiment on M14, 1.88 µM (inactive); with HT-29, 2.23 µM (inactive); with SK-MEL-5, 13.2 µM (inactive); in the experiment with SF-268 it was 1.79 µM (inactive). For the same compound, the GI50 was 1.8 µM (inactive) in the experiment on OVCAR-8; 3.56 µM (inactive) in the experiment with A549; 2.16 µM (inactive) in the experiment on UACC-62; 2.02 µM in the experiment on HCT-15; 13.4 µM (inactive) with NCI-H226; 2.32 µM (inactive) with MDA-N. Moreover, the GI50 with T47D is 2.92 µM (inactive).
`CC1OC(NCCNCCNC2OC(C)C(O)C(O)C2O)C(O)C(O)C1O` (centres undefined): the GI50 in the experiment on SF-539, in the experiment with OVCAR-3, with SK-MEL-28, with Malme-3M, with KM12 and in the experiment on SNB-19 was > 100 µM (inactive) throughout. The GI50 in the experiment on BT-549, with SF-295, in the experiment with M14, with HT-29, in the experiment on SK-MEL-5 and in the experiment on SF-268 was > 100 µM (inactive) each time. Also, the GI50 in the experiment with OVCAR-8 was > 100 µM (inactive); with A549, > 100 µM (inactive); in the experiment with UACC-62, > 100 µM (inactive); with HCT-15 it was more than 100 µM; in the experiment on NCI-H226, > 100 µM (inactive); with MDA-N, > 100 µM (inactive). Further, in the experiment on T47D, the GI50 was > 100 µM (inactive).
On to `Nc1ncn(C2OC(COP(=O)(O)O)C(O)C2O)c(=O)n1` (centres undefined), for which the GI50 in the experiment on SF-539 was > 100 µM (inactive); in the experiment with OVCAR-3 it was > 100 µM (inactive); in the experiment with SK-MEL-28, > 100 µM (inactive); in the experiment with Malme-3M it was > 81.8 µM (inactive); in the experiment on KM12, > 100 µM (inactive); in the experiment on SNB-19 it was > 100 µM (inactive). Also, the GI50 in the experiment on BT-549 is > 100 µM (inactive); with SF-295, > 100 µM (inactive); in the experiment with M14, > 100 µM (inactive); with HT-29 it was > 100 µM (inactive); in the experiment on SK-MEL-5, > 100 µM (inactive); in the experiment with SF-268, > 92 µM (inactive). For the same compound, the GI50 in the experiment on OVCAR-8 is 40.7 µM (inactive); with A549, 45.9 µM (inactive); in the experiment on UACC-62, > 100 µM (inactive); in the experiment on HCT-15, more than 100 µM; in the experiment with NCI-H226, > 100 µM (inactive); with MDA-N it was > 100 µM (inactive). Moreover, the GI50 with T47D is > 100 µM (inactive).
As for `Cc1cc(O)c(C(C)C)cc1CN1CCCCC1`, the GI50 with SF-539, in the experiment with OVCAR-3, in the experiment on SK-MEL-28, in the experiment on Malme-3M, in the experiment on KM12 and in the experiment with SNB-19 was > 100 µM (inactive) in each case. Besides, the GI50 with BT-549, in the experiment on SF-295, with M14, with HT-29, in the experiment on SK-MEL-5 and with SF-268 was > 100 µM (inactive) in each case. For the same compound, the GI50 in the experiment with OVCAR-8 was > 100 µM (inactive); in the experiment on A549 it was > 100 µM (inactive); in the experiment with UACC-62, > 100 µM (inactive); with HCT-15, more than 100 µM; with NCI-H226 it was > 100 µM (inactive); in the experiment with MDA-N, > 100 µM (inactive). In the experiment on T47D, the GI50 is > 100 µM (inactive).
For `C=C(C)/C=C/C(O)[C@](C)(O)[C@H]1[C@H](O)C[C@@]2(C)[C@@H]3CCc4c(cc(OC5OC(CO)C(O)C(O)C5O)c(O)c4C)C3(C)C(=O)C[C@]12C` (some centres undefined), the GI50 with SF-539 is 96.4 µM (inactive); in the experiment on OVCAR-3, > 100 µM (inactive); in the experiment with SK-MEL-28 it was > 100 µM (inactive); in the experiment on Malme-3M, > 100 µM (inactive); in the experiment on KM12 it was > 100 µM (inactive); with SNB-19, > 100 µM (inactive). Further, the GI50 was > 10 µM (inactive) with BT-549; > 100 µM (inactive) in the experiment on SF-295; > 100 µM (inactive) in the experiment with M14; > 100 µM (inactive) with HT-29; > 100 µM (inactive) in the experiment on SK-MEL-5; > 100 µM (inactive) in the experiment with SF-268. Moreover, the GI50 in the experiment on OVCAR-8 was > 100 µM (inactive); with A549, > 100 µM (inactive); in the experiment with UACC-62 it was 49 µM (inactive); with HCT-15 it was more than 100 µM; in the experiment on NCI-H226, > 100 µM (inactive); in the experiment with MDA-N, > 100 µM (inactive). Also, the GI50 in the experiment on T47D was > 100 µM (inactive).
In the case of `CC(C)Oc1cc2c(cc1O)CC[C@@H]1[C@@H]2CC[C@]2(C)[C@@H](O)CC[C@@H]12`, the GI50 with SF-539 was 2.42 µM (inactive); with OVCAR-3, 2.81 µM (inactive); with SK-MEL-28, 8.3 µM (inactive); in the experiment with Malme-3M, 3.82 µM (inactive); with KM12 it was 4.2 µM (inactive); in the experiment on SNB-19 it was 5.31 µM (inactive). Moreover, the GI50 in the experiment with BT-549 was 5.71 µM (inactive); with SF-295, 3 µM (inactive); with M14 it was 3.79 µM (inactive); in the experiment with HT-29, 9.84 µM (inactive); with SK-MEL-5 it was 3.01 µM (inactive); in the experiment with SF-268 it was 5.93 µM (inactive). The GI50 was 8.75 µM (inactive) in the experiment with OVCAR-8; 5.52 µM (inactive) in the experiment on A549; 2 µM (inactive) with UACC-62; 1.61 µM in the experiment with HCT-15; 3.23 µM (inactive) with NCI-H226; 0.424 µM (active) with MDA-N. Also, the GI50 in the experiment on T47D was 4.68 µM (inactive).
In the case of `NC(CSc1nc2ccccn2c1[N+](=O)[O-])C(=O)O` (centres undefined), the GI50 with SF-539, in the experiment on OVCAR-3, with SK-MEL-28, in the experiment with Malme-3M, in the experiment with KM12 and with SNB-19 was > 100 µM (inactive) each time. In addition, the GI50 with BT-549, in the experiment with SF-295, in the experiment on M14, in the experiment with HT-29, in the experiment on SK-MEL-5 and in the experiment on SF-268 was > 100 µM (inactive) throughout. Moreover, the GI50 in the experiment with OVCAR-8 was > 100 µM (inactive); with A549, > 100 µM (inactive); in the experiment with UACC-62, > 100 µM (inactive); in the experiment on HCT-15 it was more than 100 µM; in the experiment with NCI-H226 it was > 100 µM (inactive); with MDA-N, > 100 µM (inactive). In addition, the GI50 in the experiment with T47D was > 100 µM (inactive).
For the compound `Cc1nn2c(=O)c([N+](=O)[O-])c(/C=C/c3ccco3)nc2s1`, the GI50 with SF-539 is 47.4 µM (inactive); with OVCAR-3 it was 38.8 µM (inactive); in the experiment on SK-MEL-28, 48.6 µM (inactive); in the experiment on Malme-3M, 68.9 µM (inactive); in the experiment on KM12, 39.2 µM (inactive); in the experiment on SNB-19, 59 µM (inactive). Besides, the GI50 with BT-549 was 28.7 µM (inactive); in the experiment with SF-295, 91 µM (inactive); with M14, 64.7 µM (inactive); in the experiment on HT-29, 56.1 µM (inactive); in the experiment on SK-MEL-5, 25.9 µM (inactive); with SF-268, 36.4 µM (inactive). Further, the GI50 in the experiment with OVCAR-8 is 32.7 µM (inactive); in the experiment with A549, 53.5 µM (inactive); in the experiment with UACC-62, 65.3 µM (inactive); in the experiment on HCT-15, 41.5 µM; in the experiment on NCI-H226, 77.3 µM (inactive); in the experiment on MDA-N it was 26.9 µM (inactive). The GI50 in the experiment on T47D was 27.8 µM (inactive).
Consider `C/C=C/c1cc2c(cc1O)CC[C@@H]1[C@@H]2CC[C@]2(C)[C@@H](O)CC[C@@H]12`, for which the GI50 with SF-539 was 0.0237 µM (active); in the experiment on OVCAR-3, 0.0193 µM (active); with SK-MEL-28, 1.49 µM (inactive); in the experiment on Malme-3M it was 0.164 µM (active); with KM12, 1.24 µM (inactive); with SNB-19 it was 0.0695 µM (active). Besides, the GI50 in the experiment on BT-549 is 1.6 µM (inactive); in the experiment on SF-295, 0.966 µM (active); with M14, 0.041 µM (active); in the experiment on HT-29, 6.34 µM (inactive); in the experiment with SK-MEL-5, 0.0289 µM (active); in the experiment with SF-268 it was 0.217 µM (active). Further, the GI50 in the experiment on OVCAR-8 is 0.182 µM (active); in the experiment with A549 it was 0.0536 µM (active); in the experiment on UACC-62, 0.0246 µM (active); in the experiment with HCT-15 it was 0.069 µM; with NCI-H226, 0.226 µM (active); in the experiment with MDA-N, 0.0215 µM (active). In the experiment on T47D, the GI50 is 14.8 µM (inactive).
In the case of `CN(C)CCSCCO`, the GI50 in the experiment with SF-539, in the experiment with OVCAR-3, with SK-MEL-28, with Malme-3M, in the experiment with KM12 and in the experiment with SNB-19 was > 100 µM (inactive) in each case. The GI50 in the experiment with BT-549, with SF-295, in the experiment on M14, in the experiment with HT-29, with SK-MEL-5 and in the experiment with SF-268 was > 100 µM (inactive) each time. Besides, the GI50 with OVCAR-8 was > 100 µM (inactive); in the experiment on A549, > 100 µM (inactive); in the experiment with UACC-62, > 100 µM (inactive); in the experiment with HCT-15, more than 100 µM; with NCI-H226, > 100 µM (inactive); with MDA-N, > 100 µM (inactive). Also, in the experiment on T47D, the GI50 was > 100 µM (inactive).
